{"source": "patent US20070129344A1", "about": "“Bicyclic 6-alkylidene-penem beta-lactamase inhibitors and beta-lactam antibiotic combination: a broad spectrum antibiotic” (priority 2005, published 2007)", "format_in_all_cases": "cell-based", "key": {"[1]": {"system": "S. marcescens PT 6003 Stably derepressed AmpC", "assay": "MIC microbroth dilution; β-lactamase class C", "details": "Cefepime + 4 ug/ml Compound 1", "how_it_was_run": "(§1)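 Antibiotics were diluted in Mueller-Hinton II broth by NCCLS microbroth dilution. Plates were then incubated 18-22 hours in ambient air at 35° C.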"}, "[2]": {"system": "S. marcescens PT 488 Stably derepressed AmpC", "assay": "MIC microbroth dilution; β-lactamase class C", "details": "Cefepime + 4 ug/ml Compound 1", "how_it_was_run": "as §1"}, "E. coli GC 2905 (P99)": {"system": "E. coli GC 2905 (P99)", "assay": "MIC microbroth dilution; β-lactamase class C", "details": "Cefepime + 4 ug/ml Compound 1", "how_it_was_run": "as §1"}, "[3]": {"system": "S. marcescens GC 4150 Stably derepressed AmpC", "assay": "MIC microbroth dilution; β-lactamase class C", "details": "Cefepime + 4 ug/ml Compound 1", "how_it_was_run": "as §1"}, "[4]": {"system": "P. aeruginosa GC 1764 AmpC-constitutive", "assay": "MIC microbroth dilution; β-lactamase class C", "details": "Cefepime + 4 ug/ml Compound 1", "how_it_was_run": "as §1"}, "[5]": {"system": "E. coli LSU 80-8 GC 6265 TEM-1", "assay": "MIC microbroth dilution; β-lactamase class A", "details": "E. coli GC 6265; Cefepime + 4 ug/ml Compound 1", "protocol": "The in vitro activities of the antibiotics were determined by the microbroth dilution method as recommended by the National Committee for Clinical Laboratory Standards (NCCLS). (NCCLS. 2000. Methods for Dilution Antimicrobial Susceptibility Tests for Bacteria That Grow Aerobically; Approved Standards: M7-A5, vol. 19. National Committee for Clinical Laboratory Standards, Villanova, Pa.). Mueller-Hinton II broth (MHBII)(BBL Cockeysville, Md.), was used for the testing procedure. […]. The plates were incubated for 18-22 hours at 35° C. in ambient air."}}, "data": [{"molecule": "O=C([O-])C1=CS[C@@H]2/C(=C\\c3cn4c(n3)CCC4)C(=O)N12.[Na+]", "note": "[Compound 1, (5R), (6Z)-6-(6,7-Dihydro-5H-pyrrolo[1,2-a]imidazol-2-ylmethylene)-7-oxo-4-thia-1-aza-bicyclo[3.2.0]hept-2-ene-2-carboxylic Acid, Sodium Salt]", "values": [{"measurement": "MIC", "setting": "[1]", "result": 0.25, "unit": "µg/mL"}, {"measurement": "MIC", "setting": "[2]", "result": 0.06, "unit": "µg/mL"}, {"measurement": "MIC", "setting": "E. coli GC 2905 (P99)", "result": 0.06, "unit": "µg/mL"}, {"measurement": "MIC", "setting": "[3]", "result": 0.25, "unit": "µg/mL"}, {"measurement": "MIC", "setting": "[4]", "result": 0.50, "unit": "µg/mL"}, {"measurement": "MIC", "setting": "[5]", "result": 0.03, "unit": "µg/mL"}]}]}
